Results: ChEMBL document CHEMBL1201862, “PubChem BioAssay data set” (2004)
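Dose response: 5 concentrations. Exposure: 48 h. Format: 96-well plates. Endpoint: linear interpolation; highest concentration if not reached. GI50 is the concentration that inhibits growth by half.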 Active and inactive are the calls of the source. Rule as the data show it: active = GI50 up to about 1.1 µM and inactive = higher.

How the values were obtained:
Experiment in all cases: NCI tumour cell line growth inhibition, 48 h
[1] = test system: NCI/ADR-RES
[2] = test system: Malme-3M
[3] = test system: SN12C
[4] = test system: KM12
[5] = test system: PC-3
[6] = test system: CAKI-1
[7] = test system: NCI-H226
[8] = test system: HOP-92
[9] = test system: LOX IMVI
[10] = test system: A549
[11] = test system: MDA-N
[12] = test system: TK-10
[13] = test system: OVCAR-5
[14] = test system: SR
[15] = test system: HOP-62
[16] = test system: HT-29
[17] = test system: Hs-578T
[18] = test system: RPMI-8226
[19] = test system: CCRF-CEM
[20] = test system: U-251

Structure (SMILES) | GI50 [1] | GI50 [2] | GI50 [3] | GI50 [4] | GI50 [5] | GI50 [6] | GI50 [7] | GI50 [8] | GI50 [9] | GI50 [10] | GI50 [11] | GI50 [12] | GI50 [13] | GI50 [14] | GI50 [15] | GI50 [16] | GI50 [17] | GI50 [18] | GI50 [19] | GI50 [20]
COC(=O)C(=O)C(C(=O)C(=O)Nc1ccccc1C(C)=O)c1nc2ccc(C(=O)c3ccccc3)cc2nc1O (stereo not drawn) | 30.6 µM (inactive) | > 100 µM (inactive) | > 100 µM (inactive) | 27 µM (inactive) | 44 µM (inactive) | 25.9 µM (inactive) | 98.2 µM (inactive) | 75 µM (inactive) | > 100 µM (inactive) | > 100 µM (inactive) | 40.2 µM (inactive) | > 100 µM (inactive) | > 100 µM (inactive) | 3.77 µM (inactive) | 45.2 µM (inactive) | 77.8 µM (inactive) | 47.2 µM (inactive) | 63.1 µM (inactive) |  | 
COC(=O)N1CC2(CO)C3CC=C(C(=O)Nc4ccccc4Br)C2C1C3Br (stereo not drawn) | > 50 µM (inactive) | > 50 µM (inactive) |  | > 50 µM (inactive) | > 50 µM (inactive) | > 50 µM (inactive) | > 50 µM (inactive) | > 50 µM (inactive) | > 50 µM (inactive) | > 50 µM (inactive) | > 50 µM (inactive) | > 50 µM (inactive) | > 50 µM (inactive) | > 50 µM (inactive) | > 50 µM (inactive) | > 50 µM (inactive) | > 50 µM (inactive) | > 50 µM (inactive) | > 50 µM (inactive) | > 50 µM (inactive)
CN(C)c1ccc2c(c1)oc(=O)c1ccccc12 | 14.1 µM (inactive) | 11.8 µM (inactive) | 12.8 µM (inactive) |  | 15.7 µM (inactive) | 11.4 µM (inactive) | 15.3 µM (inactive) | 12.3 µM (inactive) | 6.14 µM (inactive) | 14.7 µM (inactive) | 6.27 µM (inactive) | 19.7 µM (inactive) | 15.5 µM (inactive) | 3.2 µM (inactive) | 29.2 µM (inactive) | 10.4 µM (inactive) | 17.5 µM (inactive) | 3.59 µM (inactive) | 4.24 µM (inactive) | 11.2 µM (inactive)
O=c1oc2ccccc2cc1-c1cn2c(n1)sc1ccccc12 | > 100 µM (inactive) |  | > 100 µM (inactive) | 93.5 µM (inactive) | > 100 µM (inactive) | > 100 µM (inactive) | > 100 µM (inactive) | > 100 µM (inactive) | > 100 µM (inactive) | > 100 µM (inactive) | > 100 µM (inactive) | > 100 µM (inactive) |  | > 100 µM (inactive) | > 100 µM (inactive) | 1.15 µM (inactive) | > 100 µM (inactive) | > 100 µM (inactive) | > 100 µM (inactive) | 83 µM (inactive)
O=C1N=C(c2ccccc2)O/C1=C\c1ccccc1 | > 100 µM (inactive) | > 100 µM (inactive) | > 100 µM (inactive) | > 100 µM (inactive) | > 100 µM (inactive) | > 100 µM (inactive) | > 100 µM (inactive) | > 100 µM (inactive) | > 100 µM (inactive) | > 100 µM (inactive) | > 100 µM (inactive) | > 100 µM (inactive) | > 100 µM (inactive) | > 100 µM (inactive) | > 100 µM (inactive) | > 100 µM (inactive) | > 100 µM (inactive) | > 100 µM (inactive) |  | > 100 µM (inactive)
CCCc1nnc2sc(COc3ccc(OCc4nn5c(CCC)nnc5s4)c(Cl)c3)nn12 | 30.5 µM (inactive) | 22.1 µM (inactive) | 29.4 µM (inactive) | 31 µM (inactive) | 44.2 µM (inactive) | 19.1 µM (inactive) | > 100 µM (inactive) | 20.4 µM (inactive) | 33.7 µM (inactive) | 27.5 µM (inactive) | 16.9 µM (inactive) | 31.3 µM (inactive) | 50.4 µM (inactive) | 17.8 µM (inactive) | 47.8 µM (inactive) | 29.4 µM (inactive) | 47 µM (inactive) | 19.5 µM (inactive) |  | 38.2 µM (inactive)
CCCNc1[nH]c(C(C)=O)c(N)c1C(=S)Nc1ccccc1 | 28.7 µM (inactive) | 28 µM (inactive) | 32.8 µM (inactive) | 34 µM (inactive) | > 100 µM (inactive) | 46.8 µM (inactive) | 21.7 µM (inactive) | 34 µM (inactive) | 23.3 µM (inactive) | 33.3 µM (inactive) | 41.4 µM (inactive) | 39.1 µM (inactive) | 68.9 µM (inactive) | 17.2 µM (inactive) | 42 µM (inactive) | 20 µM (inactive) | 39.3 µM (inactive) |  | 46.5 µM (inactive) | 31.7 µM (inactive)
COc1ccc2c(c1)c1c3c(ccc4ncn2c43)N(CCO)CCN=1 | 0.334 µM (active) | 0.187 µM (active) | 0.158 µM (active) | 0.26 µM (active) | 0.148 µM (active) | 0.247 µM (active) | 0.182 µM (active) | 2.07 µM (inactive) | 0.151 µM (active) | 0.218 µM (active) | 0.214 µM (active) | 0.389 µM (active) | 0.245 µM (active) | 0.0198 µM (active) | 0.132 µM (active) | 0.136 µM (active) | 0.274 µM (active) | 0.281 µM (active) | 0.0476 µM (active) | 0.254 µM (active)
O=c1cc(CN2CCCCC2)nc2ccc3c(O)cc(CN4CCCCC4)nc3n12 | > 100 µM (inactive) |  | > 100 µM (inactive) | > 100 µM (inactive) | > 100 µM (inactive) | > 100 µM (inactive) | > 100 µM (inactive) | 26.2 µM (inactive) | > 100 µM (inactive) | > 100 µM (inactive) | > 100 µM (inactive) | > 100 µM (inactive) | > 100 µM (inactive) | > 100 µM (inactive) | > 100 µM (inactive) | > 100 µM (inactive) | > 100 µM (inactive) | > 100 µM (inactive) | > 100 µM (inactive) | > 100 µM (inactive)
C#C/C=C\CCCCCCCCCCCCCC/C=C\CCCCC#CC(O)C#CCCCC/C=C\CCCCCC/C=C/C(O)C#C (stereo not drawn) | 31.5 µM (inactive) | 17.1 µM (inactive) | 24.2 µM (inactive) | 7.08 µM (inactive) | 19.1 µM (inactive) | 7.69 µM (inactive) | 32.1 µM (inactive) | 16.4 µM (inactive) | 2.55 µM (inactive) | 12.1 µM (inactive) | 3.8 µM (inactive) | 21.6 µM (inactive) | 26.1 µM (inactive) | 14.1 µM (inactive) | > 62.8 µM (inactive) | 18.3 µM (inactive) | 42.5 µM (inactive) |  | 5.25 µM (inactive) | 31.9 µM (inactive)
COC(OC)[C@@H]1OC[C@H](n2ccc(=O)[nH]c2=O)[C@H]1O | > 100 µM (inactive) |  | > 100 µM (inactive) | > 100 µM (inactive) | > 100 µM (inactive) | > 100 µM (inactive) | > 100 µM (inactive) | > 100 µM (inactive) | > 100 µM (inactive) | > 100 µM (inactive) | > 100 µM (inactive) | > 100 µM (inactive) | > 100 µM (inactive) | > 100 µM (inactive) | > 100 µM (inactive) | > 100 µM (inactive) | > 100 µM (inactive) | > 100 µM (inactive) | > 100 µM (inactive) | > 100 µM (inactive)
CCSC12CC3c4cccc5c4C(CN5C(=O)c4ccccc4)CC3(O1)N(C)C2=O (stereo not drawn) | 29 µM (inactive) | 35.6 µM (inactive) | 17.2 µM (inactive) | 45.4 µM (inactive) | 22.9 µM (inactive) | 92 µM (inactive) | 39.6 µM (inactive) | 24.1 µM (inactive) | 31.3 µM (inactive) | 38.9 µM (inactive) | 25.3 µM (inactive) | 48.5 µM (inactive) | 83 µM (inactive) | 28.7 µM (inactive) |  | 42.6 µM (inactive) | 46.3 µM (inactive) |  | 28.6 µM (inactive) | 38.5 µM (inactive)
CCOC(=O)/C(=N\Nc1ccc(-n2c(C)nc3ccc(Br)cc3c2=O)cc1)C(C)=O | 52 µM (inactive) |  | > 100 µM (inactive) | 59.6 µM (inactive) | 44.6 µM (inactive) | > 100 µM (inactive) | 77.8 µM (inactive) | 38 µM (inactive) | > 100 µM (inactive) | 53.8 µM (inactive) | 71.1 µM (inactive) | 60.3 µM (inactive) | > 100 µM (inactive) | 22.3 µM (inactive) | 42.8 µM (inactive) | > 100 µM (inactive) | 29.1 µM (inactive) | 16.4 µM (inactive) | 31.1 µM (inactive) | 59.6 µM (inactive)
Clc1cc(Cl)nc(Nc2ccc3c(c2)CCC3)n1 | 48 µM (inactive) | 28.6 µM (inactive) | 45.4 µM (inactive) | 21.4 µM (inactive) | 61.9 µM (inactive) | 28.2 µM (inactive) | 45 µM (inactive) | 32.8 µM (inactive) | 32.1 µM (inactive) | 32.6 µM (inactive) | 40.1 µM (inactive) | 18.1 µM (inactive) | 77.8 µM (inactive) | 30.3 µM (inactive) |  | 22 µM (inactive) | 28.4 µM (inactive) | 16.5 µM (inactive) | 30.3 µM (inactive) | 62.5 µM (inactive)
COc1ccc(/[N+]([O-])=C/c2ccc(OC(=S)S)c(OC)c2)cc1 | 22.7 µM (inactive) | 62.7 µM (inactive) | 37.7 µM (inactive) | 8.39 µM (inactive) | 42.4 µM (inactive) | 17 µM (inactive) | 65.6 µM (inactive) | 23.2 µM (inactive) | 38.5 µM (inactive) | 40.6 µM (inactive) | 21.3 µM (inactive) | 85.1 µM (inactive) | > 100 µM (inactive) | 15.6 µM (inactive) | 39.7 µM (inactive) | 33.3 µM (inactive) | 34.4 µM (inactive) | 30.3 µM (inactive) |  | 36.2 µM (inactive)
